Test systems include Acinetobacter baumannii; Enterobacter cloacae; Klebsiella aerogenes; Klebsiella oxytoca; Klebsiella pneumoniae; Proteus mirabilis; Pseudomonas aeruginosa; Salmonella enterica; Serratia marcescens; Staphylococcus aureus; Bacillus subtilis 168 HT; Escherichia coli E423-17.
Holding throughout (experiment): ≥ marks a high value that may be exact or a test limit, other limits are often not marked, values filed in µg/mL are converted to µM
The test system of assay [1] is Escherichia coli ATCC 35218.
Assay [2] deals with Staphylococcus epidermidis.
Assay [3] relates to Staphylococcus haemolyticus.
Assay [4] relates to Staphylococcus saprophyticus.
Assay [5] has as its system Escherichia coli K12 MG1655.
Assay [6] has as its system Staphylococcus aureus ST88.
The test system of assay [7] is Staphylococcus haemolyticus 527.
For assay [8], the system named is Candida albicans ATCC 36232.
The test system of assay [9] is Escherichia coli ATCC 2592.
Assay [10] deals with Micrococcus luteus ATCC 9341.
Assay [11] deals with Proteus vulgaris ATCC 6380.
Assay [12] concerns Pseudomonas aeruginosa ATCC 9027.
Assay [13] relates to Staphylococcus aureus ATCC 6538.
The test system of assay [14] is Escherichia coli NBRC 14237.
Assay [15] has as its system Pseudomonas aeruginosa NBRC 12582.
For assay [16], the system named is Staphylococcus aureus NBRC 12732.
Assay [17] relates to Acinetobacter baumannii B28-16.
The test system of assay [18] is Enterococcus faecium V286-17.
In assay [19] the test system is Klebsiella pneumoniae E406-17.
The test system of assay [20] is Pseudomonas aeruginosa E411-17.
Assay [21] relates to Staphylococcus aureus M838-17.
Assay [22] has as its system Staphylococcus aureus MU50.
For assay [23], the system named is Staphylococcus aureus Newman.
For assay [24], the system named is Staphylococcus aureus UAMS-1.
In assay [25] the test system is Staphylococcus aureus USA 200.
Assay [26] concerns Staphylococcus aureus USA 300.
The subject of assay [27] is Staphylococcus aureus USA 400.
Assay [28] deals with Aspergillus oryzae NBRC 100959.
Assay [29] deals with Candida viswanathii NBRC 10321.
The test system of assay [30] is Escherichia coli NBRC 3972.
The test system of assay [31] is Micrococcus luteus NBRC 3333.
Assay [32] deals with Pseudomonas putida NBRC 100650.
Assay [33] concerns Staphylococcus epidermidis NBRC 12993.

The results in this text go back to DBAASP.

Values after ≈ are worked out from the molar mass of the structure shown.

A word on the MIC: it is the lowest concentration found to suppress growth. A lower MIC goes with inhibition by little substance. Turning to `CC[C@H](C)[C@H](NC(=O)[C@H](CCCCN)NC(=O)[C@H](C)NC(=O)[C@H](CC(C)C)NC(=O)[C@H](Cc1ccccc1)NC(=O)[C@H](CCCN=C(N)N)NC(=O)[C@H](C)NC(=O)[C@H](Cc1ccc(O)cc1)NC(=O)[C@H](CCCN=C(N)N)NC(=O)[C@H](Cc1cnc[nH]1)NC(=O)[C@H](Cc1ccccc1)NC(=O)[C@H](Cc1ccc(O)cc1)NC(=O)[C@H](CCCN=C(N)N)NC(=O)[C@H](CCC(N)=O)NC(=O)[C@@H](N)Cc1ccccc1)C(=O)N[C@@H](Cc1c[nH]c2ccccc12)C(=O)N[C@@H](CCCCN)C(=O)NCC(=O)O` [FQRYFHRYARFLAKIWKG], the MIC in the assay on Acinetobacter baumannii came to 10 µM (≈ 23.9 µg/mL); against Enterobacter cloacae, 10 µM (≈ 23.9 µg/mL); in assay [1], 0.9 µM (≈ 2.15 µg/mL); against Klebsiella aerogenes, 10 µM (≈ 23.9 µg/mL); against Klebsiella oxytoca, 3.6 µM (≈ 8.6 µg/mL); against Klebsiella pneumoniae, 1.4 µM (≈ 3.34 µg/mL). In addition, the MIC against Proteus mirabilis worked out at 10 µM (≈ 23.9 µg/mL); in the assay with Pseudomonas aeruginosa, 2.8 µM (≈ 6.69 µg/mL); in the assay on Salmonella enterica, 10 µM (≈ 23.9 µg/mL); with Serratia marcescens, 10 µM (≈ 23.9 µg/mL); against Staphylococcus aureus, 1.8 µM (≈ 4.3 µg/mL); in assay [2] it was 10 µM (≈ 23.9 µg/mL). For the same compound, the MIC in [3] and in assay [4] was 10 µM (≈ 23.9 µg/mL) each time.
In the case of `CC[C@H](C)[C@H](NC(=O)[C@H](CCCCN)NC(=O)[C@@H](NC(=O)[C@@H](N)Cc1ccccc1)C(C)C)C(=O)N[C@@H](CC(C)C)C(=O)N[C@@H](C)C(=O)N[C@@H](CCCCN)C(=O)N[C@@H](CC(C)C)C(=O)N[C@H](C(=O)N[C@@H](CC(N)=O)C(=O)N[C@@H](Cc1ccc(O)cc1)C(=O)N[C@@H](C)C(=O)N[C@@H](CCCCN)C(=O)N[C@@H](CC(N)=O)C(=O)O)C(C)C` [FVKILAKLVNYAKN], the MIC in the assay with Bacillus subtilis 168 HT is 19.8 µM (≈ 32.1 µg/mL); in assay [5] it was at least 79 µM; in assay [6] it was at least 100 µM; in assay [7], at least 100 µM.
In the case of `CC(C)[C@H](NC(=O)[C@H](CCCCN)NC(=O)[C@@H]1CCCN1C(=O)[C@@H](NC(=O)[C@@H](NC(=O)[C@H](CCCCN)NC(=O)[C@@H](N)CCCCN)C(C)C)C(C)C)C(=O)N[C@@H](CCCCN)C(=O)N[C@@H](Cc1ccccc1)C(=O)N[C@@H](CCCCN)C(N)=O` [KKVVPKVKFK], the MIC in assay [8] is at least 83.3 µM; in [9] it was at least 83.3 µM; in assay [10] it was at least 83.3 µM; in assay [11] it was at least 83.3 µM; in assay [12] it was 83.3 µM (≈ 99.9 µg/mL); in assay [13], above 83.3 µM. In the assay on Staphylococcus aureus, this compound displayed an MIC above 83.3 µM.
With `CC(C)C[C@H](NC(=O)[C@@H](N)CCCCN)C(=O)N[C@@H](CCCCN)C(=O)N[C@H](C(=O)N[C@@H](Cc1c[nH]c2ccccc12)C(=O)N1CCC[C@H]1C(=O)N[C@@H](CCCCN)C(=O)N[C@@H](CC(N)=O)C(=O)N[C@@H](Cc1ccc(O)cc1)C(=O)N[C@@H](Cc1c[nH]c2ccccc12)C(=O)N[C@@H](CCCN=C(N)N)C(=O)N[C@@H](CCCCN)C(=O)N[C@H](C(=O)N[C@@H](Cc1c[nH]c2ccccc12)C(=O)N[C@@H](CO)C(=O)N[C@@H](CCCCN)C(=O)N[C@@H](CCCCN)C(=O)N[C@@H](CC(N)=O)C(=O)N[C@@H](Cc1c[nH]c2ccccc12)C(=O)N[C@@H](CCCN=C(N)N)C(=O)N[C@@H](CCCCN)C(=O)N[C@@H](Cc1ccccc1)C(=O)N[C@H](C(=O)N[C@@H](CCCCN)C(=O)N[C@@H](CCCCN)C(=O)N[C@@H](Cc1ccccc1)C(=O)N[C@@H](CCCCN)C(=O)N[C@@H](Cc1cnc[nH]1)C(=O)N[C@@H](Cc1c[nH]c2ccccc12)C(=O)O)C(C)C)C(C)C)[C@@H](C)O` [KLKTWPKNYWRKVWSKKNWRKFVKKFKHW], the MIC in assay [14], in assay [15] and in assay [16] was 3.12 µM (≈ 12.4 µg/mL) throughout.
Consider `CC(C)[C@H](NC(=O)[C@H](Cc1c[nH]c2ccccc12)NC(=O)[C@H](Cc1c[nH]c2ccccc12)NC(=O)[C@H](Cc1c[nH]c2ccccc12)NC(=O)[C@H](Cc1c[nH]c2ccccc12)NC(=O)[C@H](CCCN=C(N)N)NC(=O)[C@H](CCCN=C(N)N)NC(=O)[C@@H](N)CCCN=C(N)N)C(N)=O` [RRRWWWWV], for which the MIC in [17] turned out to be 8 µM (≈ 10.6 µg/mL); in assay [18], 2 µM (≈ 2.66 µg/mL); in the assay on Escherichia coli E423-17 it was 2 µM (≈ 2.66 µg/mL); in [19], 11.3 µM (≈ 15 µg/mL); in the assay on Klebsiella pneumoniae, 11.3 µM (≈ 15 µg/mL); in assay [20] it was 5.66 µM (≈ 7.52 µg/mL). The MIC was 3.1 µM (≈ 4.12 µg/mL) in assay [21]; 8 µM (≈ 10.6 µg/mL) in assay [22]; 4 µM (≈ 5.32 µg/mL) in [23]; 4 µM (≈ 5.32 µg/mL) in [24]; 4 µM (≈ 5.32 µg/mL) in assay [25]; 2.83 µM (≈ 3.76 µg/mL) in assay [26]. For the same compound, the MIC (in [27]; in the assay on Staphylococcus aureus) was 4 µM (≈ 5.32 µg/mL) each time.
On to `CC[C@H](C)[C@H](NC(=O)[C@H](CCCCN)NC(=O)[C@H](CCCN=C(N)N)NC(=O)[C@H](CCC(=O)O)NC(=O)[C@H](CCC(=O)O)NC(=O)[C@H](CCSC)NC(=O)[C@@H](NC(=O)[C@H](CC(N)=O)NC(=O)[C@@H](N)CO)C(C)C)C(=O)N[C@@H](CCCCN)C(=O)N[C@H](C(=O)N[C@@H](Cc1ccc(O)cc1)C(=O)N[C@@H](CC(C)C)C(=O)N1CCC[C@H]1C(=O)N[C@@H](CCCN=C(N)N)C(=O)N[C@@H](CCSC)C(=O)N[C@@H](CCCCN)C(=O)N[C@@H](CCSC)C(=O)N[C@@H](CCC(=O)O)C(=O)N[C@@H](CCC(=O)O)C(=O)O)C(C)C` [SNVMEERKIKVYLPRMKMEE], for which the MIC in [28], in [29], in assay [30], in assay [31], in [32] and in [33] was at least 319 µM in each case.
